Test results: paper PMC12592502, “Unraveling the mechanisms behind the enhanced efficacy of β-lactam-based sideromycins” (Communications Biology, 2025)
≈ marks a conversion by molar mass, not a printed value. Read-outs that look alike come from different tables or passages of the source.

Legend:
E. coli BW25113 = test: MIC, parental strain of Keio mutants; assay type: cell-based, Escherichia coli
Method: All bacterial strains (see description and sources Table S1) were stored at −80 °C, and grown on tryptone soya agar (TSA) at 35 °C. The iron-deprived (ID)-MHBCA (cation-adjusted Muller-Hinton Broth, Becton Dickinson, Mississauga, ON, Canada) medium was prepared as reported by refs. [21],[50]. Briefly, MHBCA was treated with 10% Chelex® 50-100 mesh (Sigma) and stirred for 6 h at room temperature. The resin was removed by filtration. Divalent Ca^2+ (CaCl2), Mg^2+ (MgCl2), and Zn^2+(ZnSO4), were then added in the iron-depleted medium at 22, 12, and 1 μg/ml respectively. Finally, the pH was adjusted to 7.3, and the medium was sterilized with a 0.2-μm filter. Regular MHBCA (i.e., not treated with Chelex®) was used to compare the inhibitory activity of conjugates in iron-sufficient conditions.
Minimal inhibitory concentrations (MICs) were performed using a broth microdilution technique according to the Clinical and Laboratory Standards Institute (CLSI) guidelines. MICs were determined in MHBCA and in ID-MHBCA. To check the impact of β-lactamases, MICs in the presence of a β-lactamase inhibitor were also determined. The inhibitor was homogenized at 2X the final concentration and added to the bacterial inoculum just before distributing cells into the wells containing the drug dilutions. The final concentration of each inhibitor was 4 μg/mL for clavulanic acid (tested against K. pneumoniae) and 200 μg/mL for 3-aminophenylboronic acid (tested against P. aeruginosa and A. baumannii).

[1] = Antibiotic stability in medium without bacteria
From the text: This method used ultra-performance liquid chromatography-mass spectrometry (UPLC-MS) to measure the amount of test antibiotics remaining in bacterial culture supernatants over time as a means to measure antibiotic uptake by bacterial cells. The method assumes that all antibiotic molecules in the medium (i.e., those that we measured by UPLC-MS) are not bound to the PBP targets in the periplasm, whereas it is assumed that the bactericidal effect (ΔCFU/mL) is correlated to antibiotic uptake and binding to PBPs. The test strain E. coli MC4100 was cultivated overnight in 10 mL of MHBCA or ID-MHBCA at 37 °C with shaking (200 rpm). The next day, the overnight culture was diluted in fresh preheated medium to obtain an OD600 of ~0.7 in MHBCA or ID-MHBCA. The culture was further diluted 1:2 in MHBCA or ID-MHBCA (growth controls), or in MHBCA or ID-MHBCA containing the freshly prepared test antibiotic (2 × the final concentration) to obtain an initial OD600 of ~0.35 (corresponding to 8.5 log10 CFU/mL) and 200 μM of antibiotic (final concentration). Antibiotics were also added to preheated MHBCA or ID-MHBCA without bacteria to control for the stability of the molecules in the medium over time. The moment bacteria were put in contact with the test antibiotic corresponded to the first time point (0 h). For each time point thereafter, 200 μL of sample from both assay and stability test tubes were retrieved and centrifuged at 4 °C for 5 min at 8000 × g. All supernatants were filtered (0.2 μm) and flash frozen in liquid nitrogen for transport. After melting, 2 μL of the samples were injected in the UPLC-MS before the analysis. In parallel, 20 μL of assay and growth control tubes were serially diluted in 96-well plates. Ten μL of each dilution was spotted on TSA plates and incubated for 24 h at 37 °C for CFU counting.
For analysis, the determined concentration in the supernatant was adjusted for the degradation of the molecules measured in the stability control tests for each time point. The final net antibiotic concentration in the medium was calculated at each time point by adding the concentration caused by degradation to the concentration of the test antibiotic measured in the assay tubes containing bacteria. […] A second control was added for the β-lactam LOR and CEF to verify the impact of metabolic waste on the stability of the molecules. The supernatant from the 4-h growth control without antibiotic was collected by filtration 0.2 µm. LOR and CEF were then added to the filtrated supernatant at 200 µM, and degradation was measured after 3 h.

AmpC (PDC-5) = AmpC (PDC-5) (Pseudomonas aeruginosa, UniProt P24735, R79Q/T105A); test: biochemical; assay type: biochemical, P. aeruginosa ATCC 27853
AmpC (PDC-5), sequence (P24735 27-397 R79Q/T105A): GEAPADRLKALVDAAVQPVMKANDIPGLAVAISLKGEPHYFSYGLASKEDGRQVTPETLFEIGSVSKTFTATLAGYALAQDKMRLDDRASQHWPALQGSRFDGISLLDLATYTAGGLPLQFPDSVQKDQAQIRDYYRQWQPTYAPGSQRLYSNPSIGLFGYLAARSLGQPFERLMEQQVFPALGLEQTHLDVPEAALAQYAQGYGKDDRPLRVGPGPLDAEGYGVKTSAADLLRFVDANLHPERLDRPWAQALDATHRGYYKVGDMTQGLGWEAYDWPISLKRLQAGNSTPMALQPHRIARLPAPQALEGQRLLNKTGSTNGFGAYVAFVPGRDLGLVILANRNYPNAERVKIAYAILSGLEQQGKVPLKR
Method: The purification of AmpC from the culture supernatant obtained above was conducted as described in the Catwright and Waley protocol[52] using an Affi-gel 10 matrix (Bio-Rad, Hercules, CA, USA) loaded in a column (G-Bioscience, St-Louis, MO, USA). First, the resin was washed with cold deionized water. The resin was then collected and mixed with 20 mL of the 3-aminophenylboronic acid solution (1 M KHCO3 containing 2 g of 3-aminophenyl boronic acid and 2 g of sorbitol) at 4 °C for 1 h, and the pH was maintained at 8 with solid KHCO3. The mixture was loaded onto the column and washed with 10 column volumes of 1 M NaCl/0.5 M sorbitol (pH 7), followed by 10 column volumes of 0.5 M borate (pH 7), and then 10 column volumes of the loading buffer (20 mM triethanolamine HCl/0.5 M NaCl, pH 7). The sample was dialyzed in the loading buffer before being loaded onto the column. The column was washed with the loading buffer until no absorbance was measured at OD280. AmpC was eluted in fractions of 1 mL with 0.5 M borate/0.5 M NaCl pH 7. […] The purity was visualized on a 10% bis-acrylamide gel. Only pure fractions showing a single band at 40 kDa were pooled together and then dialyzed at 4 °C in a KP buffer 0.05 M pH 7 (see Fig. S2). The protein concentration was determined with a Bradford protein reagent (Bio-Rad).
Enzyme concentrations were 20 nM for AmpC and SHV-1, and 50 nM for OXA-98. Quartz cuvette (FireflySci Inc., Northport, NY) with 1 cm length path and 2 mm inside width was used with an Ultrospec 2100 Pro (Biochrom, Harvard Bioscience Inc., USA) to acquire the kinetic measures. […] The following extinction coefficients (Δε) and wavelengths (λ) were used:
The steady-state parameters (Km and Kcat) were determined by plotting the initial velocity against substrate concentrations (Michaelis–Menten curve). The Kcat was measured using the Vmax (μM/sec) divided by the total enzyme concentration and the catalytic efficiency was further calculated (Kcat/Km). SHV-1 parameters were determined with three Michaelis–Menten curves of at least seven substrate concentrations, while OXA-98 and AmpC were duplicates of curves of at least seven substrate concentrations. […] Initial velocities were measured at room temperature (25 °C). The Vmax and Km were calculated using least squares fit regression in GraphPad version 10.2.2. Ki was measured using a derivative of IC50 with an adaptation of the Cheng–Prusoff equation[55]. […] The corrected Ki was calculated using this formula: Kicorrected=Ki(observed)/1+S/KmNCF

[2] = Escherichia coli, BW25113, BW25113, ID-MHBCA
[3] = Escherichia coli, BW25113, BW25113, MHBCA

Row | SMILES | MIC (E. coli BW25113; BW25113, ID-MHBCA) | MIC (E. coli BW25113; [2]) | MIC (E. coli BW25113; [3]) | percentage of antibiotic degradation ([1]; 2 h, ID-MHBCA) | percentage of antibiotic degradation ([1]; 2 h, MHBCA) | percentage of antibiotic degradation ([1]; 4 h, ID-MHBCA) | percentage of antibiotic degradation ([1]; 4 h, MHBCA) | percentage of antibiotic degradation ([1]; 6 h, ID-MHBCA) | percentage of antibiotic degradation ([1]; 6 h, MHBCA) | percentage of antibiotic degradation ([1]; 8 h, ID-MHBCA) | percentage of antibiotic degradation ([1]; 8 h, MHBCA) | percentage of antibiotic degradation ([1]; 10 h, ID-MHBCA) | percentage of antibiotic degradation ([1]; 10 h, MHBCA) | percentage of antibiotic degradation ([1]; 24 h, ID-MHBCA) | percentage of antibiotic degradation ([1]; 24 h, MHBCA) | AmpC (PDC-5) Vmax (AmpC (PDC-5); n = 2) | Ki (AmpC (PDC-5)) | further results
1 | O=C(CCC(=O)N(CCCCNC(=O)c1cccc(O)c1O)CCCNC(=O)c1cccc(O)c1O)NCCCCCN(O)C(=O)CCCC(=O)NC(C(=O)NC1C(=O)N2C(C(=O)O)=C(Cl)CSC12)c1ccccc1 (stereo not drawn) [MCEF, mixed ligand bis-catechol-mono-hydroxamate-cefaclor] | >200 µM | > 200 µM | 13 µM (≈ 14.1 µg/mL) | 5% | 12% | 18% | 25% | 22% | 29% | 31% | 41% | 29% | 38% | 43% | 54% |  |  | 
2 | N[C@@H](C(=O)N[C@@H]1C(=O)N2C(C(=O)O)=C(Cl)CC[C@H]12)c1ccccc1 [LOR, loracarbef, reference compound] | 6.3 µM (≈ 2.2 µg/mL) |  |  |  |  |  |  |  |  |  |  |  |  |  |  | 15 ± 0.3 µmol·mg/min |  | Km (AmpC (PDC-5); Michaelis–Menten curves, n = 2, read-out: AmpC (PDC-5) Km): 22 ± 0.5 µM; MIC (E. coli BW25113; BW25113, MHBCA): 6.3 µM (≈ 2.2 µg/mL); percentage of antibiotic degradation [1]: NDD
3 | O=C(CN(CCCCNC(=O)c1cccc(O)c1O)C(=O)c1cccc(O)c1O)NC(C(=O)NC1C(=O)N2C(C(=O)O)=C(Cl)CCC12)c1ccccc1 (stereo not drawn) [BLOR, bis-catechol (azotochelin)-loracarbef] |  | 0.006 µM (≈ 0.0045 µg/mL) | 0.012 µM (≈ 0.009 µg/mL) | NDD | 6% | 3% | 15% | 6% | 15% | 14% | 26% | 9% | 22% | 14% | 28% | 11 ± 1 µmol·mg/min |  | 
4 | N[C@@H](C(=O)N[C@@H]1C(=O)N2C(C(=O)O)=C(Cl)CS[C@H]12)c1ccccc1 [CEF, cefaclor, reference compound] |  | 6.3 µM (≈ 2.32 µg/mL) | 6.3 µM (≈ 2.32 µg/mL) |  |  |  |  |  |  |  |  |  |  |  |  |  |  | percentage of antibiotic degradation ([1]; 2 h, 200 μM): 14%
5 | CC1(C)S[C@@H]2[C@H](NC(=O)[C@H](N)c3ccccc3)C(=O)N2[C@H]1C(=O)O [AMP, ampicillin, reference compound] |  |  |  |  |  |  |  |  |  |  |  |  |  |  |  |  | 15 ± 1 µM | 
6 | CC1(C)SC2C(NC(=O)C(NC(=O)CN(CCCCNC(=O)c3cccc(O)c3O)C(=O)c3cccc(O)c3O)c3ccccc3)C(=O)N2C1C(=O)O (stereo not drawn) [BAMP, bis-catechol (azotochelin)-ampicillin] |  | 0.024 µM (≈ 0.018 µg/mL) | 0.05 µM (≈ 0.0375 µg/mL) |  |  |  |  |  |  |  |  |  |  |  |  |  | 19 ± 1 µM | 
